Experiment [1] concerns phosphorylation of ERK, KRAS G12D in AGS cells. The experiment is described as follows: pERK inhibition assay. The class given is cell-based. The conditions noted are these: Homo sapiens, AGS, 4 h. In a few lines:
(§1)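 NCI-H358 (KRAS G12C), AGS (G12D) and SW620 (G12V) cells plated overnight, then treated with compound for 4 h in 0.5% DMSO. After fixing and methanol permeabilisation, phospho-ERK was detected by in-cell ELISA (HRP/TMB, OD450). IC50 from a 4-parameter sigmoidal fit.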

In experiment [2] the test system is phosphorylation of ERK, KRAS G12V in SW620. The experiment is described as follows: pERK inhibition assay. Format: cell-based. The note with it: Homo sapiens, SW-620, 4 h, SW620 cells. Put shortly:
as §1

In experiment [3] the test system is phosphorylation of ERK, KRAS G12C in NCI-H358 cells. The experiment is described as follows: pERK inhibition assay. The conditions noted are these: Homo sapiens, NCI-H358, 4 h. Format: cell-based. In a few lines:
as §1

A further experiment concerns SW620 cells (KRAS G12V). Briefly: Cell viability assay (Cell Counting Kit-8, 3-day). The class given is cell-based, human. The note with it: Homo sapiens, SW-620; SW620, 72 hrs incubation. In a few lines:
(§2)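 Read-out is CCK-8 absorbance (OD450 minus OD650, 2 hrs after reagent), reflecting NADPH after 72 hrs of compound exposure in 0.5% DMSO. Seeding density was 5,000 cells/well for NCI-H358 and 2,000 for AGS and SW620. IC50 derived by 4-parameter sigmoidal fitting.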

Experiment [4] deals with NCI-H358 cells (KRAS G12C). Briefly: Cell viability assay (Cell Counting Kit-8, 3-day). The class given is cell-based, human. The conditions noted are these: Homo sapiens, NCI-H358, 72 h, NCI-H358, 72 hrs incubation. In a few lines: as §2
In general terms: Tetrazolium dyes change colour on reduction, which living cells bring about.

The subject of the next experiment is AGS cells (KRAS G12D). Briefly: Cell viability assay (Cell Counting Kit-8, 3-day). The note with it: Homo sapiens, 72 h, 72 hrs incubation. Format: cell-based, human. In a few lines:
as §2

The target in a further experiment is KRAS G12C-BRAF complex (Homo sapiens (Human), UniProt P01116+P62937, G12C). The experiment is described as follows: KRAS-BRAF with CYPA (500 nM) interaction assay (TR-FRET, Example 136). The class given is biochemical. The conditions noted are these: KRAS G12C-BRAF disruption.
KRAS G12C-BRAF complex, sequence (P01116-2 other isoform, or with tags, fused parts or gaps G12C): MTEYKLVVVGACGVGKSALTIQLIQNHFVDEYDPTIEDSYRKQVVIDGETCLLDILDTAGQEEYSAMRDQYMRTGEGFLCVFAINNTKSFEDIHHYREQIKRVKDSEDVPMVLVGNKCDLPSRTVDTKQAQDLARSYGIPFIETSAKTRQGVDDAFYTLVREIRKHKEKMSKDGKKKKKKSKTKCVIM
KRAS G12C-BRAF complex, sequence (P62937 whole entry): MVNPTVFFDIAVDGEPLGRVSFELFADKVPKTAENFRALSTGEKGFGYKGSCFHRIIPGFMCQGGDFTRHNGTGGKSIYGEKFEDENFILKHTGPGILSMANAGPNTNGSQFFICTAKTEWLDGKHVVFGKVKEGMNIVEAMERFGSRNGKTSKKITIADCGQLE

Molecules are shown by their SMILES.

In general, IC50 refers to the point on the concentration scale where inhibition reaches its midpoint. Lower therefore signals greater potency in that assay.

Take `CO[C@@H](C)c1ncc(N2CCN3CCCC[C@@H]3C2)cc1-c1c2c3cc(cc4c3n1CCC4)-c1csc(n1)C[C@H](NC(=O)[C@H]1C[C@@H]1C)C(=O)N1CCC[C@H](N1)C(=O)OCC(C)(C)C2` (atropisomer, axis not shown; (M)) [Example 49, (1S,2S)-N-[(7S,13S)-(20M)-20-[5-[(9αR)-1,3,4,6,7,8,9,9a-octahydropyrido[1,2-a]pyrazin-2-yl]-2-[(1S)-1-methoxyethyl]-3-pyridyl]-17,17-dimethyl-8,14-dioxo-15-oxa-4-thia-9,21,30,31-tetrazahexacyclo[23.3.1.1^2,5.1^9,13.0^19,27.0^21,26]hentriaconta-1 (28),2,5 (31), 19,25 (29),26-hexaen-7-yl]-2-methyl-cyclopropanecarboxamide]: the IC50 in experiment [1] is 13.7 nM; in experiment [2], 1.3 nM; in experiment [3], 2.4 nM; in the experiment on SW620 cells (KRAS G12V) it was 1.7 nM; in experiment [4], 9.7 nM; with AGS cells (KRAS G12D), 29.1 nM. Also, it took 17.5 nM to reach half-maximal inhibition on KRAS G12C-BRAF complex (IC50).
Consider `CO[C@@H](C)c1ncc(N2CCN(C)CC2)cc1-c1c2c3cc(cc4c3n1CCC4)-c1csc(n1)C[C@H](NC(=O)[C@H]1C[C@@H]1c1ccncn1)C(=O)N1CCC[C@H](N1)C(=O)OCC(C)(C)C2` (atropisomer, axis not shown; (M)) [Example 50, (1S,2S)-N-[(7S,13S)-(20M)-20-[2-[(1S)-1-methoxyethyl]-5-(4-methylpiperazin-1-yl)-3-pyridyl]-17,17-dimethyl-8,14-dioxo-15-oxa-4-thia-9,21,30,31-tetrazahexacyclo[23.3.1.1^2,5.1^9,13.0^19,27.0^21,26]hentriaconta-1 (28),2,5 (31), 19,25 (29),26-hexaen-7-yl]-2-pyrimidin-4-yl-cyclopropanecarboxamide], for which the IC50 in experiment [1] worked out at 20.1 nM; in experiment [2], 2.4 nM; in experiment [3], 3.5 nM; with SW620 cells (KRAS G12V), 3.8 nM; in experiment [4], 24.1 nM; in the experiment on AGS cells (KRAS G12D), 72.6 nM. Also, the IC50 on KRAS G12C-BRAF complex stood at 22 nM.
Consider `CO[C@@H](C)c1ncc(N2CCN(C)CC2)cc1-c1c2c3cc(cc4c3n1CCO4)-c1csc(n1)C[C@H](NC(=O)[C@H]1C[C@@H]1c1ccccc1)C(=O)N1CCC[C@H](N1)C(=O)OCC(C)(C)C2` (atropisomer, axis not shown; (M)) [Example 51, (1S,2S)-N-[(7S,13S)-(20M)-20-[2-[(1S)-1-methoxyethyl]-5-(4-methylpiperazin-1-yl)-3-pyridyl]-17,17-dimethyl-8,14-dioxo-15,24-dioxa-4-thia-9,21,30,31-tetrazahexacyclo[23.3.1.1^2,5.1^9,13.0^19,27.0^21,26]hentriaconta-1 (29),2,5 (31), 19,25,27-hexaen-7-yl]-2-phenyl-cyclopropanecarboxamide], for which the IC50 turned out to be 4.8 nM in experiment [1]; 0.7 nM in experiment [2]; 1 nM in experiment [3]; 1.4 nM with SW620 cells (KRAS G12V); 5.9 nM in experiment [4]; 13.3 nM in the experiment with AGS cells (KRAS G12D). The compound further displayed an IC50 against KRAS G12C-BRAF complex of 21.1 nM.
For the compound `CO[C@@H](C)c1ncc(N2CCN(C)CC2)cc1-c1c2c3cc(cc4c3n1CCO4)-c1csc(n1)C[C@H](NC(=O)[C@@H]1[C@@H]3COC[C@@H]31)C(=O)N1CCC[C@H](N1)C(=O)OCC(C)(C)C2` (atropisomer, axis not shown; (M)) [Example 52, (1R,5S,6s)-N-[(7S,13S)-(20M)-20-[2-[(1S)-1-methoxyethyl]-5-(4-methylpiperazin-1-yl)-3-pyridyl]-17,17-dimethyl-8,14-dioxo-15,24-dioxa-4-thia-9,21,30,31-tetrazahexacyclo[23.3.1.1^2,5.1^9,13.0^19,27.0^21,26]hentriaconta-1 (28),2,5 (31), 19,25 (29),26-hexaen-7-yl]-3-oxabicyclo[3.1.0]hexane-6-carboxamide], the IC50 in experiment [1] turned out to be 5.1 nM; in experiment [2], 0.7 nM; in experiment [3] it was 1.4 nM; in the experiment with SW620 cells (KRAS G12V) it was 1.1 nM; in experiment [4], 7 nM; with AGS cells (KRAS G12D), 12 nM. Also, inhibition at KRAS G12C-BRAF complex was half-maximal at 16.1 nM (IC50).
In the case of `CO[C@@H](C)c1ncc(N2CCN(C)CC2)cc1-c1c2c3cc(cc4c3n1CCC4)-c1csc(n1)C[C@H](NC(=O)[C@H]1C[C@@H]1c1cccnc1)C(=O)N1CCC[C@H](N1)C(=O)OCC(C)(C)C2` (atropisomer, axis not shown; (M)) [Example 56, (1S,2S)-N-[(7S,13S)-(20M)-20-[2-[(1S)-1-methoxyethyl]-5-(4-methylpiperazin-1-yl)-3-pyridyl]-17,17-dimethyl-8,14-dioxo-15-oxa-4-thia-9,21,30,31-tetrazahexacyclo[23.3.1.1^2,5.1^9,13.0^19,27.0^21,26]hentriaconta-1 (28),2,5 (31), 19,25 (29),26-hexaen-7-yl]-2-(3-pyridyl)cyclopropanecarboxamide], the IC50 amounted to 2.7 nM in experiment [1]; 0.6 nM in experiment [2]; 0.8 nM in experiment [3]; 0.3 nM in the experiment on SW620 cells (KRAS G12V); 1.2 nM in experiment [4]; 5.2 nM in the experiment with AGS cells (KRAS G12D). Besides, at KRAS G12C-BRAF complex, the IC50 was 10.3 nM.
For the compound `CO[C@@H](C)c1ncc(N2CCN(C)CC2)cc1-c1c2c3cc(cc4c3n1CC(F)(F)C4)-c1csc(n1)C[C@H](NC(=O)[C@H]1[C@@H]3COC[C@@H]31)C(=O)N1CCC[C@H](N1)C(=O)OCC(C)(C)C2` (atropisomer, axis not shown; (M)) [Example 60], the IC50 in experiment [1] is 8.2 nM; in experiment [2] it was 0.9 nM; in experiment [3], 2.3 nM; with SW620 cells (KRAS G12V), 1.7 nM; in experiment [4], 8.2 nM; in the experiment on AGS cells (KRAS G12D) it was 32 nM. In addition, half-maximal inhibition against KRAS G12C-BRAF complex (IC50) required 15.2 nM.
Regarding `CO[C@@H](C)c1ncc(N2CCOCC2)cc1-c1c2c3cc(cc4c3n1CC(C)(C)O4)-c1csc(n1)C[C@H](NC(=O)[C@H]1[C@H](C)[C@@H]1C)C(=O)N1CCC[C@H](N1)C(=O)OCC(C)(C)C2` (atropisomer, axis not shown; (M)) [Example 61, (1r,2R,3S)-N-[(7S,13S)-(20M)-20-[2-[(1S)-1-methoxyethyl]-5-morpholino-3-pyridyl]-17,17,23,23-tetramethyl-8,14-dioxo-15,24-dioxa-4-thia-9,21,30,31-tetrazahexacyclo[23.3.1.1^2,5.1^9,13.0^19,27.0^21,26]hentriaconta-1 (28),2,5 (31), 19,25 (29),26-hexaen-7-yl]-2,3-dimethyl-cyclopropanecarboxamide], the IC50 in experiment [1] is 10.3 nM; in experiment [2], 1.1 nM; in experiment [3], 8.5 nM; in the experiment with SW620 cells (KRAS G12V) it was 3 nM; in experiment [4], 22.6 nM; with AGS cells (KRAS G12D), 33.4 nM. In addition, half-maximal inhibition against KRAS G12C-BRAF complex (IC50) was put at 50.9 nM.
Turning to `CO[C@@H](C)c1ncc(N2CCN(C)CC2)cc1-c1c2c3cc(cc4c3n1CCC4)-c1csc(n1)C[C@H](NC(=O)[C@H]1C[C@@H]1c1cccnn1)C(=O)N1CCC[C@H](N1)C(=O)OCC(C)(C)C2` (atropisomer, axis not shown; (M)) [Example 63, (1S,2S)-N-[(7S,13S)-(20M)-20-[2-[(1S)-1-methoxyethyl]-5-(4-methylpiperazin-1-yl)-3-pyridyl]-17,17-dimethyl-8,14-dioxo-15-oxa-4-thia-9,21,30,31-tetrazahexacyclo[23.3.1.1^2,5.1^9,13.0^19,27.0^21,26]hentriaconta-1 (28),2,5 (31), 19,25 (29),26-hexaen-7-yl]-2-pyridazin-3-yl-cyclopropanecarboxamide], the IC50 amounted to 18.3 nM in experiment [1]; 3 nM in experiment [2]; 5.1 nM in experiment [3]; 4.2 nM in the experiment with SW620 cells (KRAS G12V); 10.6 nM in experiment [4]; 78 nM with AGS cells (KRAS G12D). Moreover, the half-maximal inhibitory concentration (IC50) at KRAS G12C-BRAF complex turned out to be 34 nM.
For the compound `CO[C@@H](C)c1ncc(N2CCN(C)CC2)cc1-c1c2c3cc(cc4c3n1CCO4)-c1csc(n1)C[C@H](NC(=O)[C@@H]1C[C@H]1C1CC1)C(=O)N1CCC[C@H](N1)C(=O)OCC(C)(C)C2` (atropisomer, axis not shown; (M)) [Example 64, (1R,2S)-2-cyclopropyl-N-[(7S,13S)-(20M)-20-[2-[(1S)-1-methoxyethyl]-5-(4-methylpiperazin-1-yl)-3-pyridyl]-17,17-dimethyl-8,14-dioxo-15,24-dioxa-4-thia-9,21,30,31-tetrazahexacyclo[23.3.1.1^2,5.1^9,13.0^19,27.0^21,26]hentriaconta-1 (29),2,5 (31), 19,25,27-hexaen-7-yl]cyclopropanecarboxamide], the IC50 in experiment [1] was 3.7 nM; in experiment [2] it was 0.6 nM; in experiment [3] it was 1.2 nM; with SW620 cells (KRAS G12V), 1.3 nM; in experiment [4], 8 nM; in the experiment on AGS cells (KRAS G12D), 21.9 nM. For the same compound, on KRAS G12C-BRAF complex, the IC50 turned out to be 17.2 nM.

(Values after patent publication US20240417410A1, “TRICYCLIC COMPOUNDS FOR THE TREATMENT OF CANCER” (Hoffmann-La Roche Inc., priority 2023, published 2024).)
